US9624229B2, “Pyrimidine-2-amine compounds and their use as inhibitors of JAK kinases” (Rigel Pharmaceuticals, Inc., priority 2008, dated 2017)
Each block holds one compound with its values, some of them ahead of it.

Target: Ba/F3 V617F cells (Homo sapiens, UniProt O60674, V617F, cells depend on it)
Test: Proliferation assay (Cell Titer-Glo, 72 h) utilizing Ba/F3 V617F cells
Format: cell-based, mouse
Conditions: Ba/F3 V617F cells, proliferation, level of activity to inhibit JAK2, read-out: IC50 (the source's name)
How it was run: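 Ba/F3 V617F cells in RPMI/10% FBS, 1×10^5 cells/mL, exposed in duplicate to 3-fold serial compound dilutions (top 5 mM DMSO stock, diluted 1:250, added as 2× solution in 5% FBS medium) for 72 h at 37 °C. Viability by Cell Titer-Glo luminescence; IC50 reported.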

Sequence of Ba/F3 V617F cells (O60674 whole entry V617F): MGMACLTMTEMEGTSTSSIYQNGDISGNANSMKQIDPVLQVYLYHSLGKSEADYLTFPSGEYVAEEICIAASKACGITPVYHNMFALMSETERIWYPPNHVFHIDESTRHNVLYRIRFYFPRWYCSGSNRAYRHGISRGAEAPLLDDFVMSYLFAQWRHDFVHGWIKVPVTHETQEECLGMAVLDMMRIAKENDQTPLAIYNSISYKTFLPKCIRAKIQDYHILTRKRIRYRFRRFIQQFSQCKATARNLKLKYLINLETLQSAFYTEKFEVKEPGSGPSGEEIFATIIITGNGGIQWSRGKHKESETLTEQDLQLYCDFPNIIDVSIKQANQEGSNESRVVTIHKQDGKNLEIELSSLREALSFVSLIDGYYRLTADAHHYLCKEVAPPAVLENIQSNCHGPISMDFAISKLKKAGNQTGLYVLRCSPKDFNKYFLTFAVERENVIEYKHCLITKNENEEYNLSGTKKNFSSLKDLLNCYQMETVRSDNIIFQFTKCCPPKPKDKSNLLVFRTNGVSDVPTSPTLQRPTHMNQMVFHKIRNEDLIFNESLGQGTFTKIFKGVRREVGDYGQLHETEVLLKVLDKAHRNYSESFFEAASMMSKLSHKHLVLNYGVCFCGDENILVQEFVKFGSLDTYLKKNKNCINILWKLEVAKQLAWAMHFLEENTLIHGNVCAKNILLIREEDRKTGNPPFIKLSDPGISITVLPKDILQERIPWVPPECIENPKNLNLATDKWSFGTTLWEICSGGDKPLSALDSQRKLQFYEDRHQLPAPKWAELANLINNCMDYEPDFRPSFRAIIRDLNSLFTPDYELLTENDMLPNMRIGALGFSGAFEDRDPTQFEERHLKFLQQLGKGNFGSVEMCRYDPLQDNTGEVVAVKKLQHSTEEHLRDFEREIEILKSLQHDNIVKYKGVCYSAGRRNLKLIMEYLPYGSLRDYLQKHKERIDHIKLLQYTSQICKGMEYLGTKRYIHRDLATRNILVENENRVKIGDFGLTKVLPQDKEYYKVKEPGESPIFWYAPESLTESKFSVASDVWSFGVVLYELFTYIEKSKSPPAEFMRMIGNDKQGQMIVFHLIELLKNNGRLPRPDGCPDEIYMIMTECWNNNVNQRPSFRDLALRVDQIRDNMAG

SMILES: Cc1cc(-c2ccnc(Nc3ccc(N4CC5(C)CN(C)CC(C)(C4)C5)c(F)c3)n2)cnc1N1CCOCC1 [compound 82, 4-(5-methyl-6-(morpholin-4-yl)pyridin-3-yl)-N-(3-fluoro-4-(1,5,7-trimethyl-3,7-diazabicyclo[3.3.1]nonan-3-yl)phenyl)pyrimidin-2-amine]
- GI50: < 1000 nM

SMILES: CN1CC2(C)CN(c3ccc(Nc4nccc(-c5ccc(N(C)C)nc5)n4)cc3F)CC(C)(C1)C2 [compound 83, 4-(6-(dimethylamino)pyridin-3-yl)-N-(3-fluoro-4-(1,5,7-trimethyl-3,7-diazabicyclo[3.3.1]nonan-3-yl)phenyl)pyrimidin-2-amine]
- GI50: < 1000 nM

SMILES: CN1CC2(C)CN(c3ccc(Nc4nccc(-c5ccc(N(C)C)cc5)n4)cc3F)CC(C)(C1)C2 [compound 84, 4-(4-(dimethylamino)phenyl)-N-(3-fluoro-4-(1,5,7-trimethyl-3,7-diazabicyclo[3.3.1]nonan-3-yl)phenyl)pyrimidin-2-amine]
- GI50: < 1000 nM

SMILES: CN1CC2(C)CN(c3ccc(Nc4nccc(-c5ccc(N6CCOCC6)nc5)n4)cc3F)CC(C)(C1)C2 [compound 85, 4-(6-(morpholin-4-yl)pyridin-3-yl)-N-(3-fluoro-4-(1,5,7-trimethyl-3,7-diazabicyclo[3.3.1]nonan-3-yl)phenyl)pyrimidin-2-amine]
- GI50: < 1000 nM

SMILES: Cc1cc(Nc2nccc(-c3cnc4c(c3)OCCN4)n2)ccc1N1C[C@@H]2C[C@H]1CN2C [compound 86, 4-(3,4-dihydro-2H-pyrido[3,2-b][1,4]oxazin-7-yl)-N-(3-methyl-4-((1S,4S)-5-methyl-2,5-diazabicyclo[2.2.1]heptan-2-yl)phenyl)pyrimidin-2-amine]
- GI50: < 1000 nM

SMILES: CN1C[C@@H]2C[C@H]1CN2c1ccc(Nc2nccc(-c3cnc4c(c3)OCCN4)n2)cc1F [compound 87, 4-(3,4-dihydro-2H-pyrido[3,2-b][1,4]oxazin-7-yl)-N-(3-fluoro-4-((1S,4S)-5-methyl-2,5-diazabicyclo[2.2.1]heptan-2-yl)phenyl)pyrimidin-2-amine]
- GI50: < 1000 nM

SMILES: Cc1cc(Nc2nccc(-c3cnc4c(c3)OCCN4)n2)ccc1N1CC2(C)CN(C)CC(C)(C1)C2 [compound 88, 4-(3,4-dihydro-2H-pyrido[3,2-b][1,4]oxazin-7-yl)-N-(3-methyl-4-(1,5,7-trimethyl-3,7-diazabicyclo[3.3.1]nonan-3-yl)phenyl)pyrimidin-2-amine]
- GI50: < 1000 nM

SMILES: CN1CC2(C)CN(c3ccc(Nc4nccc(-c5cnc6c(c5)OCCN6)n4)cc3F)CC(C)(C1)C2 [compound 89, 4-(3,4-dihydro-2H-pyrido[3,2-b][1,4]oxazin-7-yl)-N-(3-fluoro-4-(1,5,7-trimethyl-3,7-diazabicyclo[3.3.1]nonan-3-yl)phenyl)pyrimidin-2-amine]
- GI50: 1000 to 10000 nM

SMILES: Cc1cc(Nc2nccc(-c3ccc(Cc4ccccc4)nc3)n2)ccc1N1CC2(C)CN(C)CC(C)(C1)C2 [compound 90, 4-(6-(benzyl)pyridin-3-yl)-N-(3-methyl-4-(1,5,7-trimethyl-3,7-diazabicyclo[3.3.1]nonan-3-yl)phenyl)pyrimidin-2-amine]
- GI50: < 1000 nM

SMILES: CN1CC2(C)CN(c3ccc(Nc4nccc(-c5ccc(Cc6ccccc6)nc5)n4)cc3F)CC(C)(C1)C2 [compound 91, 4-(6-(benzyl)pyridin-3-yl)-N-(3-fluoro-4-(1,5,7-trimethyl-3,7-diazabicyclo[3.3.1]nonan-3-yl)phenyl)pyrimidin-2-amine]
- GI50: < 1000 nM

SMILES: CCCNc1ncc(-c2ccnc(Nc3ccc(N4C[C@@H]5C[C@H]4CN5C)c(C)c3)n2)cn1 [compound 92, 4-(2-(propyl)aminopyrimidin-5-yl)-N-(3-methyl-4-((1S,4S)-5-methyl-2,5-diazabicyclo[2.2.1]heptan-2-yl)phenyl)pyrimidin-2-amine]
- GI50: < 1000 nM

SMILES: CCCNc1ncc(-c2ccnc(Nc3ccc(N4C[C@@H]5C[C@H]4CN5C)c(F)c3)n2)cn1 [compound 93, 4-(2-(propyl)aminopyrimidin-5-yl)-N-(3-fluoro-4-((1S,4S)-5-methyl-2,5-diazabicyclo[2.2.1]heptan-2-yl)phenyl)pyrimidin-2-amine]
- GI50: < 1000 nM

SMILES: CN1C[C@@H]2C[C@H]1CN2c1ccc(Nc2nccc(-c3ccc(NC4CCCCC4)nc3)n2)cc1C(F)(F)F [compound 94, 4-(6-(cyclohexylamino)pyridin-3-yl)-N-(3-trifluoromethyl-4-((1S,4S)-5-methyl-2,5-diazabicyclo[2.2.1]heptan-2-yl)phenyl)pyrimidin-2-amine]
- GI50: < 1000 nM

SMILES: Cc1cc(Nc2nccc(-c3cncc(S(C)(=O)=O)c3)n2)ccc1N1C[C@@H]2C[C@H]1CN2C [compound 95, 4-(5-(methyl)sulfonylpyridin-3-yl)-N-(3-methyl-4-((1S,4S)-5-methyl-2,5-diazabicyclo[2.2.1]heptan-2-yl)phenyl)pyrimidin-2-amine]
- GI50: < 1000 nM

SMILES: CN(C)c1ccc(-c2ccnc(Nc3ccc(N4C[C@@H]5C[C@H]4CN5C)c(C(F)(F)F)c3)n2)cn1 [compound 96, 4-(6-(dimethylamino)pyridin-3-yl)-N-(3-trifluoromethyl-4-((1S,4S)-5-methyl-2,5-diazabicyclo[2.2.1]heptan-2-yl)phenyl)pyrimidin-2-amine]
- GI50: < 1000 nM

SMILES: CN1C[C@@H]2C[C@H]1CN2c1ccc(Nc2nccc(-c3ccc(N4CCOCC4)nc3)n2)cc1C(F)(F)F [compound 97, 4-(6-(morpholin-4-yl)pyridin-3-yl)-N-(3-trifluoromethyl-4-((1S,4S)-5-methyl-2,5-diazabicyclo[2.2.1]heptan-2-yl)phenyl)pyrimidin-2-amine]
- GI50: < 1000 nM

SMILES: CN1C[C@@H]2C[C@H]1CN2c1ccc(Nc2nccc(-c3cnc4c(c3)OCCN4)n2)cc1C(F)(F)F [compound 98, 4-(3,4-dihydro-2H-pyrido[3,2-b][1,4]oxazin-7-yl)-N-(3-trifluoromethyl-4-((1S,4S)-5-methyl-2,5-diazabicyclo[2.2.1]heptan-2-yl)phenyl)pyrimidin-2-amine]
- GI50: < 1000 nM

SMILES: Cc1cc(Nc2nccc(-c3ccc(NCCNS(=O)(=O)C4CC4)nc3)n2)ccc1N1C[C@@H]2C[C@H]1CN2C [compound 99, 4-(6-((2-(cyclopropylsulfonyl)aminoethyl)-amino)pyridin-3-yl)-N-(3-methyl-4-((1S,4S)-5-methyl-2,5-diazabicyclo[2.2.1]heptan-2-yl)phenyl)pyrimidin-2-amine]
- GI50: 1000 to 10000 nM

SMILES: Cc1cc(Nc2nccc(-c3ccc(NCCNS(=O)(=O)C4CC4)nc3)n2)ccc1N1C[C@@H]2C[C@H]1CO2 [compound 100, 4-(6-((2-(cyclopropylsulfonyl)aminoethyl)-amino)pyridin-3-yl)-N-(3-methyl-4-((1S,4S)-5-oxa-2-azabicyclo[2.2.1]heptan-2-yl)phenyl)pyrimidin-2-amine]
- GI50: < 1000 nM

Now from value to compound:

- GI50: < 1000 nM
SMILES: CN1C[C@@H]2C[C@H]1CN2c1ccc(Nc2nccc(-c3cncc(S(C)(=O)=O)c3)n2)cc1F [compound 101, 4-(5-(methyl)sulfonylpyridin-3-yl)-N-(3-fluoro-4-((1S,4S)-5-methyl-2,5-diazabicyclo[2.2.1]heptan-2-yl)phenyl)pyrimidin-2-amine]

- GI50: < 1000 nM
SMILES: CN1C[C@@H]2C[C@H]1CN2c1ccc(Nc2nccc(-c3cncc(S(C)(=O)=O)c3)n2)cc1C(F)(F)F [compound 102, 4-(5-(methyl)sulfonylpyridin-3-yl)-N-(3-trifluoromethyl-4-((1S,4S)-5-methyl-2,5-diazabicyclo[2.2.1]heptan-2-yl)phenyl)pyrimidin-2-amine]

- GI50: < 1000 nM
SMILES: Cc1cc(Nc2nccc(-c3ccc4nccn4c3)n2)ccc1N1C[C@@H]2C[C@H]1CN2C [compound 103, 4-(imidazo[1,2-a]pyridin-6-yl)-N-(3-methyl-4-((1S,4S)-5-methyl-2,5-diazabicyclo[2.2.1]heptan-2-yl)phenyl)pyrimidin-2-amine]

- GI50: 1000 to 10000 nM
SMILES: Cc1cc(Nc2nccc(-c3ccc(-c4ncc(-c5ccc(N(C)C)cc5)o4)cc3)n2)ccc1N1C[C@@H]2C[C@H]1CN2C [compound 104, 4-(4-(5-(4-dimethylaminophenyl)oxazol-2-yl)phenyl)-N-(3-methyl-4-((1S,4S)-5-methyl-2,5-diazabicyclo[2.2.1]heptan-2-yl)phenyl)pyrimidin-2-amine]

- GI50: < 1000 nM
SMILES: COc1ccc2cc(-c3ccnc(Nc4ccc(N5C[C@@H]6C[C@H]5CN6C)c(C)c4)n3)[nH]c2c1 [compound 105, 4-(6-methoxy-1H-indol-2-yl)-N-(3-methyl-4-((1S,4S)-5-methyl-2,5-diazabicyclo[2.2.1]heptan-2-yl)phenyl)pyrimidin-2-amine]

- GI50: 1000 to 10000 nM
SMILES: Cc1cc(Nc2nccc(-c3cnn(-c4cccc(Cl)c4)c3)n2)ccc1N1C[C@@H]2C[C@H]1CN2C [compound 106, 4-(1-(3-chlorophenyl)-1H-pyrazol-4-yl)-N-(3-methyl-4-((1S,4S)-5-methyl-2,5-diazabicyclo[2.2.1]heptan-2-yl)phenyl)pyrimidin-2-amine]

- GI50: < 1000 nM
SMILES: Cc1cc(Nc2nccc(-c3ccc4ncn(C)c4c3)n2)ccc1N1C[C@@H]2C[C@H]1CN2C [compound 107, 4-(1-methylbenzimidazol-6-yl)-N-(3-methyl-4-((1S,4S)-5-methyl-2,5-diazabicyclo[2.2.1]heptan-2-yl)phenyl)pyrimidin-2-amine]

- GI50: < 1000 nM
SMILES: Cc1cc(Nc2nccc(-c3cc4cc(C#N)ccc4[nH]3)n2)ccc1N1C[C@@H]2C[C@H]1CN2C [compound 108, 4-(5-cyano-1H-indol-2-yl)-N-(3-methyl-4-((1S,4S)-5-methyl-2,5-diazabicyclo[2.2.1]heptan-2-yl)phenyl)pyrimidin-2-amine]

- GI50: < 1000 nM
SMILES: Cc1cc(Nc2nccc(-c3cnn(-c4ccc(F)cc4)c3)n2)ccc1N1C[C@@H]2C[C@H]1CN2C [compound 109, 4-(1-(4-fluorophenyl)-1H-pyrazol-4-yl)-N-(3-methyl-4-((1S,4S)-5-methyl-2,5-diazabicyclo[2.2.1]heptan-2-yl)phenyl)pyrimidin-2-amine]

- GI50: 1000 to 10000 nM
SMILES: Cc1cc(Nc2nccc(-c3ccc(N4CCOCC4)nc3)n2)ccc1N1C2CCC1CC2 [compound 110, 4-(6-(morpholin-4-yl)pyridin-3-yl)-N-(3-methyl-4-(7-azabicyclo[2.2.1]heptan-7-yl)phenyl)pyrimidin-2-amine]
